{
  "source": "patent US4766212A",
  "about": "“2H-[1]benzoxepino[5,4-b]-1,4-oxazine derivatives” (Merrell Dow Pharmaceuticals Inc., priority 1987, dated 1988)",
  "key": {"[1]": {"system": "morphine-induced Straub tail", "assay": "Antagonism of morphine-induced Straub tail (muscle relaxant activity)", "type": "in vivo", "conditions": "Mus musculus, ip; mice, i.p., 15 min before morphine sulfate s.c.", "experimental": "The characteristic elevation of the mouse tail (Straub tail) following morphine administration is due to a sustained, centrally mediated reflex contraction of the sacrococcygeus dorsalis muscle. Five to ten mice are used in each test, weight (18 to 30 grams) and placed in a Plexiglass observation chamber 2 to 3 minutes prior to injection. Animals are treated with the test compound at log doses, ca. 10 ml/kg, based upon the ED50 obtained from the Rotorod test (reduction of motor ability). Fifteen minutes later the desired dose of morphine sulfate, ca. 10 ml/kg, is injected subcutaneously and the mice observed for a period of 30 minutes following morphine administration for the presence or absence of Straub tail (defined as elevation of tail at 90° C. or more)."}, "mice [2]": {"system": "mice", "assay": "Reduction of motor ability, rotorod", "type": "in vivo", "conditions": "Mus musculus, ip, 50% decrease in mean time on the rotorod", "experimental": "Following a method of Kinnard and Carr, J. Pharmacol. Exp. Therap., 121, 354 (1957), groups of 10 mice are preselected for their ability to remain upon a horizontal rotating (15 rpm) rod (rotorod) for 120 seconds. The mice are dosed with the test compound and tested at various times. The percent change in mean time upon the rotorod from the pre-drug control time of 120 seconds is calculated for each dose group. […] The ED50 is defined as the dose of compound producing a 50% decrease in mean time on the rotorod."}, "mice [3]": {"system": "mice", "assay": "Acetic acid writhing syndrome test for analgesic activity", "type": "in vivo, mouse", "conditions": "for ED50: Mus musculus, sc", "experimental": "J. Pharmacol., 22, 2246 (1964).\nGroups of 5 to 10 mice are administered one or more doses of the test compound by the desired route (but not intraperitoneally). At a selected time the mice are administered acetic acid, 0.4 ml (0.25% v/v solution) i.p. Five minutes later, the mice are observed for a period of 15 minutes to determine the appearance of squirming (abdominal writhing), and the number of squirms for each mouse is determined.\nFor ED50 determination, four or more doses of compound are tested in groups of 10 mice. The following ED50 's for analgesic activity were observed and determined."}, "[4]": {"system": "Spontaneously hypertensive rats", "assay": "Systolic arterial blood pressure in spontaneously hypertensive rats (antihypertensive activity)", "type": "in vivo, rat", "conditions": "for Change In Systolic Blood Pressure From Control Post Treatment: * p < 0.05", "experimental": "Spontaneously hypertensive rates (males 250-300 g), obtained from the Charles River Breeding Laboratories, are divided into different treatment groups of 12 rats each. On separate days, one group of 12 rats is given 3, 10 or 30 mg/kg of the test compound, trans-3,4,4a,5,6,11b-hexahydro-10-fluoro-2H-[1]benzoxepino[5,4-b]-1,4-oxazine hydrochloride, by gavage and another group of 12 rats is given water (vehicle, 5 ml/kg).\nSystolic arterial blood pressure is recorded from the tail of each rat using an occluding cuff and transducer. Systolic arterial blood pressure is recorded prior and subsequent to the administration of drug or vehicle at 1, 2, 3 and 4 hours post treatment."}, "[5]": {"conditions": "0.5 h, oral, pretreatment time 30 minutes"}, "[6]": {"conditions": "0.5 h, subcutaneous, pretreatment time 30 minutes"}, "[7]": {"conditions": "1 h, subcutaneous, pretreatment time 60 minutes"}, "[8]": {"conditions": "2 h, subcutaneous, pretreatment time 120 minutes"}},
  "data": [
    {"smiles": "Cl.c1ccc2c(c1)OCC[C@H]1NCCO[C@H]21", "note": "(relative stereo) [Trans-3,4,4a,5,6,11b-Hexahydro-2H-[1]benzoxepino-[5,4-b]-1,4-oxazine Hydrochloride]", "values": [
      {"measurement": "ED50", "setting": "[1]", "result": 1.03, "unit": "mg/kg"},
      {"measurement": "ED50", "setting": "mice [2]", "result": 23.9, "unit": "mg/kg"}
    ]},
    {"smiles": "CN1CCO[C@@H]2c3ccccc3OCC[C@H]21.O=C(O)/C=C\\C(=O)O", "note": "(relative stereo) [Trans-3,4,4a,5,6,11b-Hexahydro-4-methyl-2H-[1]benzoxepino[5,4-b]-1,4-oxazine Maleate]", "values": [
      {"measurement": "ED50", "setting": "[1]", "result": 2.89, "unit": "mg/kg"},
      {"measurement": "ED50", "setting": "mice [2]", "result": 12.4, "unit": "mg/kg"},
      {"measurement": "ED50", "setting": "mice [3]; [5]", "result": 42.8, "unit": "mg/kg"},
      {"measurement": "ED50", "setting": "mice [3]; [6]", "result": 4.35, "unit": "mg/kg"},
      {"measurement": "ED50", "setting": "mice [3]; 1 h, oral, pretreatment time 60 minutes", "result": 52.2, "unit": "mg/kg"},
      {"measurement": "ED50", "setting": "mice [3]; [7]", "result": 13.8, "unit": "mg/kg"},
      {"measurement": "ED50", "setting": "mice [3]; [8]", "result": 26.6, "unit": "mg/kg"},
      {"measurement": "analgesic effect in brackets beside the ED50", "setting": "mice [3]; subcutaneous, pretreatment time 120 minutes, @ 256 mg/kg", "result": 50, "unit": "%"}
    ]},
    {"smiles": "CCN1CCO[C@@H]2c3ccccc3OCC[C@H]21", "note": "(relative stereo) [Trans-4-Ethyl-3,4,4a,5,6,11b-hexahydro-2H-[1]benzoxepino[5,4-b]-1,4-oxazine]", "values": [
      {"measurement": "ED50", "setting": "mice [3]; [5]", "result": 6.8, "unit": "mg/kg"},
      {"measurement": "ED50", "setting": "mice [3]; [6]", "result": 1.5, "unit": "mg/kg"},
      {"measurement": "ED50", "setting": "mice [3]; [7]", "result": 8.8, "unit": "mg/kg"},
      {"measurement": "ED50", "setting": "mice [3]; [8]", "result": "> 128", "unit": "mg/kg"}
    ]},
    {"smiles": "Cl.Fc1ccc2c(c1)[C@H]1OCCN[C@@H]1CCO2", "note": "(relative stereo) [trans-3,4,4a,5,6,11b-hexahydro-10-fluoro-2H-[1]benzoxepino[5,4-b]-1,4-oxazine hydrochloride]", "values": [
      {"measurement": "Change In Systolic Blood Pressure From Control Post Treatment", "setting": "[4]; 3 mg/kg by gavage, 1 Hour", "result": -15, "unit": "mm Hg"},
      {"measurement": "Change In Systolic Blood Pressure From Control Post Treatment", "setting": "[4]; 3 mg/kg by gavage, 2 Hours", "result": -20, "unit": "mm Hg"},
      {"measurement": "Change In Systolic Blood Pressure From Control Post Treatment", "setting": "[4]; 3 mg/kg by gavage, 3 Hours", "result": -22, "unit": "mm Hg"},
      {"measurement": "Change In Systolic Blood Pressure From Control Post Treatment", "setting": "[4]; 3 mg/kg by gavage, 4 Hours", "result": -24, "unit": "mm Hg"},
      {"measurement": "Change In Systolic Blood Pressure From Control Post Treatment", "setting": "[4]; 10 mg/kg by gavage, 1 Hour", "result": -52, "unit": "mm Hg"},
      {"measurement": "Change In Systolic Blood Pressure From Control Post Treatment", "setting": "[4]; 10 mg/kg by gavage, 2 Hours", "result": -44, "unit": "mm Hg"},
      {"measurement": "Change In Systolic Blood Pressure From Control Post Treatment", "setting": "[4]; 10 mg/kg by gavage, 3 Hours", "result": -42, "unit": "mm Hg"},
      {"measurement": "Change In Systolic Blood Pressure From Control Post Treatment", "setting": "[4]; 10 mg/kg by gavage, 4 Hours", "result": -45, "unit": "mm Hg"},
      {"measurement": "Change In Systolic Blood Pressure From Control Post Treatment", "setting": "[4]; 30 mg/kg by gavage, 1 Hour", "result": -84, "unit": "mm Hg"},
      {"measurement": "Change In Systolic Blood Pressure From Control Post Treatment", "setting": "[4]; 30 mg/kg by gavage, 2 Hours", "result": -73, "unit": "mm Hg"},
      {"measurement": "Change In Systolic Blood Pressure From Control Post Treatment", "setting": "[4]; 30 mg/kg by gavage, 3 Hours", "result": -73, "unit": "mm Hg"},
      {"measurement": "Change In Systolic Blood Pressure From Control Post Treatment", "setting": "[4]; 30 mg/kg by gavage, 4 Hours", "result": -72, "unit": "mm Hg"},
      {"measurement": "effect on systolic arterial blood pressure, in words", "setting": "[4]; 3, 10, 30 mg/kg by gavage", "result": "dose related decrease in systolic arterial blood pressure that is statistically significant"},
      {"measurement": "duration of the anti-hypertensive effect", "setting": "[4]; at the three doses tested (3, 10, 30 mg/kg, gavage)", "result": "at least 4 hours"}
    ]}
  ]
}
